According to article PMC5193077, “An Allosteric Potentiator of the Dopamine D1 Receptor Increases Locomotor Activity in Human D1 Knock-In Mice without Causing Stereotypy or Tachyphylaxis” (The Journal of Pharmacology and Experimental Therapeutics, 2017):
“And” between values parts separate entries of the source, which are not always exact repeats. Equal entries are not always repeated. “Also recorded” adds a separate entry of the source.

What was measured:
rat D1 receptor = target: T1, rat D1 receptor (Rattus norvegicus, UniProt P18901); assay: cAMP response in rD1 HEK293 cells; format: cell-based
T1 construct: expressed in transfected cells

human D1 receptor [1] = target: T2, human D1 receptor (Homo sapiens, UniProt P21728); assay: cAMP potentiation, transiently expressed human D1 receptor in HEK293 cells; format: cell-based; settings: Human D1, transient
dog D1 receptor = dog D1 receptor (Canis lupus familiaris, UniProt A0A8I3RQT9); assay: cAMP potentiation, transiently expressed dog D1 receptor in HEK293 cells; format: cell-based; settings: Dog D1, transient
Protocol: The human, rhesus monkey, dog, or mouse D1 receptor was cloned into the Jump-In vector system (Life Technologies, Austin, TX) and transiently transfected into HEK293 cells using Fugene HD (Promega, Madison, WI). After 2 days of growth in DMEM medium containing 10% FBS, 10 mM HEPES, and 100 µg/ml ampicillin at 37°C in 5% CO2, the cells were harvested with TrypLE Express (GIBCO), resuspended in FBS containing 8% DMSO, and stored in 1-ml aliquots (10 × 10^6 cells/ml) at −70°C. The cAMP accumulation was measured as described for hD1 except that 6000 to 10,000 cells per well were used and the EC20 concentration of dopamine used was 0.7 nM (final).

[2] = target: T3, rhesus monkey D1 receptor (Macaca mulatta, UniProt O77680); assay: cAMP potentiation, transiently expressed rhesus monkey D1 receptor in HEK293 cells; format: cell-based; settings: Rhesus D1, transient
T3 construct: expressed in transfected cells; host or cells: HEK293, transient (Fugene HD)

mouse D1 receptor = target: T4, mouse D1 receptor (Mus musculus, UniProt Q61616); assay: cAMP potentiation, transiently expressed mouse D1 receptor in HEK293 cells; format: cell-based
T4 construct: expressed in transfected cells; host or cells: HEK293, transient (Fugene HD)

human D5 receptor = target: T5, human D5 receptor (Homo sapiens, UniProt P21918); assay: cAMP response in hD5 CHO cells; format: cell-based
T5 construct: host or cells: CHO
Protocol: A Chinese hamster ovary (CHO) cell line expressing the human D5 receptor was purchased from DiscoveRx (Fremont, CA) (product no. 92-1043). The hD5 assay was performed in the same way as the hD1 assay except that the EC20 concentration of dopamine was 2 nM.

β1 receptor = β1 receptor (Homo sapiens, UniProt P08588); assay: β1 cAMP assay (DiscoveRx); format: cell-based; settings: potentiator, agonist and antagonist mode, up to 10 µM
Protocol: (§1) The D2, β1, β2, β3, and 5HT6 cAMP assays were performed at DiscoveRx using the protocols described on their website (www.discoverx.com).

β2 receptor = β2 receptor (Homo sapiens, UniProt P07550); assay: β2 cAMP assay (DiscoveRx); format: cell-based; settings: potentiator, agonist and antagonist mode, up to 10 µM
Protocol: as §1

β3 receptor = β3 receptor (Homo sapiens, UniProt P13945); assay: β3 cAMP assay (DiscoveRx); format: cell-based; settings: potentiator, agonist and antagonist mode, up to 10 µM
Protocol: as §1

5HT6 receptor = 5HT6 receptor (Homo sapiens, UniProt P50406); assay: 5HT6 cAMP assay (DiscoveRx); format: cell-based; settings: potentiator, agonist and antagonist mode, up to 10 µM
Protocol: as §1

[3] = system: 10 additional targets from the standard Lilly selectivity panel; assay: Standard Lilly selectivity panel, additional targets
human D1 receptor [4] = target: T2, human D1 receptor; assay: 3H-SCH23390 binding to human D1 HEK293 cell membranes; settings: 1-100 nM DETQ
hD1 mice [5] = assay: Locomotor activity (LMA) in hD1 mice; format: in vivo, mouse
Source text: Male hD1 mice, 8–10 weeks old (weighing 18 to 25 g at the time of the experiment), were used. Monitoring of mouse LMA took place in transparent plastic shoebox cages having dimensions of 45 × 25 × 20 cm, with a 1-cm depth of wood chips for absorbent bedding, and covered with a ventilated filtered plastic cage top.
Cages were placed in a rectangular frame containing a grid of 12 photocell beams in an 8 × 4 configuration (Kinder Scientific, Poway, CA) that were positioned 2.5 cm from the floor of the cage for the detection of body movements (ambulations), which were recorded by computer for analysis. Mice were placed inside individual LMA boxes for 1 hour during an acclimation period. Mice were then dosed with test compounds (oral or subcutaneous) and were replaced inside individual LMA boxes for the start of LMA. Photocell activity (total ambulations) was collected for 60 minutes using software from Hamilton Kinder (Poway, CA).
Calculation of data based on total ambulations was done using Excel (Microsoft, Redmond, WA). Graphing and statistical analysis of data were done using one-way analysis of variance followed by Dunnett’s multiple comparison test using GraphPad Prism.

hD1 mice [6] = assay: Video-tracking of horizontal motion, rearing and grooming in hD1 mice; format: in vivo, mouse
Source text: The apparatus for the video-tracking assessment experiment included 12 custom-built video-tracking observation chambers and the HomeCageScan (CleverSys, Reston, VA) software system. The chambers, measuring (in inches) 8 width × 10 length × 8 height, consisted of two end walls, a back wall, a top, and a floor constructed of ¼-in. translucent white acrylic, and one side (front) constructed of clear acrylic. LED strip lighting was placed below the chamber for illumination. A color video camera (640 × 480, 30 frames per second) was placed in front of each chamber to record behavior from a side view. The chambers were located in large sound-attenuating chambers to reduce ambient room noise and isolate lighting. The cameras were connected in groups of four to a quad multiplexer (model NVQC-42N; Nuvico, Englewood, NJ), with each multiplexer connected to its own computer, which then recorded each session to an MPEG file.
At the end of the experiment the files were batch-analyzed by a computer running the CleverSys CageScan video-tracking software. This software can recognize and quantify several different behaviors, including LMA, grooming, rearing, immobility, and feeding behaviors. The current experiment examined behavior in a novel open-field environment rather than home-cage activity, which limited behaviors of interest to LMA, grooming, and rearing.
For HomeCageScan behavioral phenotyping, male D1 knock-in mice (8–12 weeks, 20–25 g body weight) were placed into the observation chambers for a 60-minute habituation session. […] All behavioral activity was monitored and scored by the HomeCageScan system.

hD1 mice [7] = system: hD1 mice; set-up: method as in Bruns et al., submitted for publication; settings: reserpine pretreatment; ref Bruns et al., submitted for publication; cited from earlier work

T1 sequence (P18901 whole entry): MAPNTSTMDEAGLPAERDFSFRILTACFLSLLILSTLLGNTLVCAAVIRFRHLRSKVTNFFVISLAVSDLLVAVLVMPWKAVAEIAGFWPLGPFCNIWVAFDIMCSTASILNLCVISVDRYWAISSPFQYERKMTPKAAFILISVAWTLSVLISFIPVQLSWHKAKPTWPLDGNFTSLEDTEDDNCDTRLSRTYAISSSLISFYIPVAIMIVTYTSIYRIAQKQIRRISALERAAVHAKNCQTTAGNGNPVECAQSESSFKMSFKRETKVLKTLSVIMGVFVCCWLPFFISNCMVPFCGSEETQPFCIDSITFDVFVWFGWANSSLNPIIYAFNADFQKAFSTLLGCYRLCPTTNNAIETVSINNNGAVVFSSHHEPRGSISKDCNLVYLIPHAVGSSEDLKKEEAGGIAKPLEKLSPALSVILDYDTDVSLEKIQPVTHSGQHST
T2 sequence (P21728 whole entry): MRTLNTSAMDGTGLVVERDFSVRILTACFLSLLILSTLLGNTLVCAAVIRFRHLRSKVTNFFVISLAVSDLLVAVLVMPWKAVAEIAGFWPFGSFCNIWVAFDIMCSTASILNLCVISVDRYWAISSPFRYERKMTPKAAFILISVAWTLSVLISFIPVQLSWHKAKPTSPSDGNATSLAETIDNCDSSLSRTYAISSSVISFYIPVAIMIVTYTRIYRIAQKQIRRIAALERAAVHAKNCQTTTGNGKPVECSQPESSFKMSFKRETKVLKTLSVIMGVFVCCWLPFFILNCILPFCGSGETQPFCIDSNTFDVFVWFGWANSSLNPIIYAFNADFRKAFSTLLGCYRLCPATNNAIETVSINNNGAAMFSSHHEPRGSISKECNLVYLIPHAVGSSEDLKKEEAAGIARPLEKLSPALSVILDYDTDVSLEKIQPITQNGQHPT
T4 sequence (Q61616 whole entry): as the sequence (P18901 whole entry) above, with A11T, A15V, L91F, P93S, T181A, A245T, A254S, V370M, K403R, A410P counted along it
T5 sequence (P21918 whole entry): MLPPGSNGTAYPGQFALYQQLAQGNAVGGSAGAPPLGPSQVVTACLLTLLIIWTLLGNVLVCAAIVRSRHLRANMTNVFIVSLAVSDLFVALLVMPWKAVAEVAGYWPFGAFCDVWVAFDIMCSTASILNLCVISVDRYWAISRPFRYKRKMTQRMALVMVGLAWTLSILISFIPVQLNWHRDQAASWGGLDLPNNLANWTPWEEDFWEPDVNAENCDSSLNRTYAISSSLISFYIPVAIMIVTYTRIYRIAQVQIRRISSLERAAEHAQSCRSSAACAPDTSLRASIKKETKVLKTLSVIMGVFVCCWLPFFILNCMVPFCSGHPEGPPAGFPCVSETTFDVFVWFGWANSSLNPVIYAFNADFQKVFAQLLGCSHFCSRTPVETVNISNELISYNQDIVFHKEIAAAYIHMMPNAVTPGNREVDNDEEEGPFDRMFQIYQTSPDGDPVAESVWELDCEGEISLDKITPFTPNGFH
T3 sequence (O77680 whole entry): as the sequence (P21728 whole entry) above, with N311I counted along it
Sequence of dog D1 receptor (A0A8I3RQT9 1-446): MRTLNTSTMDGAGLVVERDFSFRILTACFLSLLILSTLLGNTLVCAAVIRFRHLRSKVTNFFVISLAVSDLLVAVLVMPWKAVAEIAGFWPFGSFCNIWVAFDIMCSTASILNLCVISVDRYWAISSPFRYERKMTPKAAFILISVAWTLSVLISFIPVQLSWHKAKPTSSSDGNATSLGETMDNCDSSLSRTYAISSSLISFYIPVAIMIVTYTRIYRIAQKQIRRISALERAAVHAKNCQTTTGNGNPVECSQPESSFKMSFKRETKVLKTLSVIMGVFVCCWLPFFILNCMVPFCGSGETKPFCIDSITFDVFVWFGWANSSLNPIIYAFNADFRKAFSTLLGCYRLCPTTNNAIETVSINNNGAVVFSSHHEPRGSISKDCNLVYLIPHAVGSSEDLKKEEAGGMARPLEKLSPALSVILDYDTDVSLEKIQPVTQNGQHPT
Sequence of β2 receptor (P07550 whole entry): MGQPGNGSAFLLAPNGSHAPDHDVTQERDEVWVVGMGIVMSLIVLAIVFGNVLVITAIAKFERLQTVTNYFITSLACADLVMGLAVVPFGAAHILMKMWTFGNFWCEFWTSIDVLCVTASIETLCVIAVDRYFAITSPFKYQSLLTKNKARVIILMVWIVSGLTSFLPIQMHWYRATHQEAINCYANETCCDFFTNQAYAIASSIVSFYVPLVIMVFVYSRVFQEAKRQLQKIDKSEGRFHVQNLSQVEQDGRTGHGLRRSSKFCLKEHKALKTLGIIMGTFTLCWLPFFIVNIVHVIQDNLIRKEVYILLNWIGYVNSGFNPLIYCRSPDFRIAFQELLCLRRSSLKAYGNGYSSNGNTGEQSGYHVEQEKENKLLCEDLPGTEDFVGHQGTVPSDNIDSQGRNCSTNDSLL
Sequence of β3 receptor (P13945 whole entry): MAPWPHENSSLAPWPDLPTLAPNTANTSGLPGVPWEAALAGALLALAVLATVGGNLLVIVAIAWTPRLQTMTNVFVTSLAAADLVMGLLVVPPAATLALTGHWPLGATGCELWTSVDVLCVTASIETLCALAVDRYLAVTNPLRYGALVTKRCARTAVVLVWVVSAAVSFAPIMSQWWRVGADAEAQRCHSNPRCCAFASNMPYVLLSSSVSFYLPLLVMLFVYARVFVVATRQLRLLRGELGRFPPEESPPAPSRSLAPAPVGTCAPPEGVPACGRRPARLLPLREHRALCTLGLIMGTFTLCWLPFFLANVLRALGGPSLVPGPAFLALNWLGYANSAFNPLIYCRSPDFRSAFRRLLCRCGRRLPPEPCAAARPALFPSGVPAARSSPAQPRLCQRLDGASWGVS
Sequence of 5HT6 receptor (P50406 whole entry): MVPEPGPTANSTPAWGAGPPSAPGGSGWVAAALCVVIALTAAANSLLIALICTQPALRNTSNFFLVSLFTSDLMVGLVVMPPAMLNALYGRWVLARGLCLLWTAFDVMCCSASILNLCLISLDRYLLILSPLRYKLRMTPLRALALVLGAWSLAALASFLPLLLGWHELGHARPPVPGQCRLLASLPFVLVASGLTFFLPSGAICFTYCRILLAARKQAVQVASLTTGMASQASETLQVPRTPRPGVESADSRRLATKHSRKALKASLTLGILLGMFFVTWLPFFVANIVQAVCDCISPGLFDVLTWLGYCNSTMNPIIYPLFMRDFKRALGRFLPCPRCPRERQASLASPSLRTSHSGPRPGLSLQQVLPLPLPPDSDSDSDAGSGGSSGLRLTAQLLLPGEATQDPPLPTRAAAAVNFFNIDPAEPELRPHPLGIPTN
Sequence of β1 receptor (P08588 whole entry): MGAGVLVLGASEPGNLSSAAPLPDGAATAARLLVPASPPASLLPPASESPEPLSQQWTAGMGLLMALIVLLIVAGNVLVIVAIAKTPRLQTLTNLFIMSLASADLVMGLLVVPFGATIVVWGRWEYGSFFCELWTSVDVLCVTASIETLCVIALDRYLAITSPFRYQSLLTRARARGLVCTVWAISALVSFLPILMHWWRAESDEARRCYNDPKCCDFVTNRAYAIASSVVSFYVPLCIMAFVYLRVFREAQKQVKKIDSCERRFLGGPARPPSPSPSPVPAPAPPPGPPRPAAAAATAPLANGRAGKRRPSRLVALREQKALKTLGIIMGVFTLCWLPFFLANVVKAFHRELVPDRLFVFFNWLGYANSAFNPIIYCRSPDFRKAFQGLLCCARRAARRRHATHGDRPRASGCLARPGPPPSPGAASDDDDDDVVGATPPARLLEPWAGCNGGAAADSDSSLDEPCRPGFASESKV

C[C@H]1c2cccc(C(C)(C)O)c2C[C@H](CO)N1C(=O)Cc1c(Cl)cccc1Cl [DETQ, 2-(2,6-dichlorophenyl)-1-((1S,3R)-3-(hydroxymethyl)-5-(2-hydroxypropan-2-yl)-1-methyl-3,4-dihydroisoquinolin-2(1H)-yl)ethan-1-one]
Loss of functional affinity/potency at rat D1 versus human D1 (rat D1 receptor): ~30 fold and 28 fold
Emax (rat D1 receptor; HEK293, rat D1, read-out: Maximum response relative to that of dopamine): 39.9%
EC50 (rat D1 receptor; rat D1, 5 nM dopamine (EC20), n = 4, read-out: EC50, cAMP potentiation): 162 ± 18 nM
Top (%) (human D1 receptor [1]): 75.6%
EC50 (human D1 receptor [1]; 0.7 nM dopamine): 11.4 nM
Top (%) (dog D1 receptor): 85.2%
EC50 (dog D1 receptor; 0.7 nM dopamine): 8.6 nM
Top (%) [2]: 80.0%
EC50 ([2]; 0.7 nM dopamine): 12 nM
Loss of potency/affinity at mouse D1 versus human D1 (mouse D1 receptor): ~30 fold
Top (%) (mouse D1 receptor; Mouse D1, transient): 50.0%
EC50 (mouse D1 receptor; Mouse D1, transient, 0.7 nM dopamine): 312 nM
Selectivity for the D1 receptor over D5 (human D5 receptor): > 1000 fold
Activity at human D5 receptor (human D5 receptor; potentiator mode, up to 25 µM): inactive
Activity at β1 receptor (β1 receptor): inactive
Activity at β2 receptor (β2 receptor): inactive
Activity at β3 receptor (β3 receptor): inactive
Activity at 5HT6 receptor (5HT6 receptor): inactive
Activity at 10 additional targets of the Lilly selectivity panel [3]: inactive
Effect on affinity of dopamine to inhibit SCH23390 binding (human D1 receptor [4]): increased the affinity of dopamine
EC50 (hD1 mice [5]; Mus musculus, four-parameter fit, unbound brain concentration, hD1 mice, read-out: EC50 in LMA versus unbound brain levels): 9.2 nM
Overt adverse behavioral effects (hD1 mice [5]; any of the doses (up to 240 mg/kg)): no overt adverse behavioral effects were observed
Bottom of LMA versus unbound brain level curve (hD1 mice [5]; four-parameter fit): 40 % of control
Top of LMA versus unbound brain level curve (hD1 mice [5]; four-parameter fit): 1,590 % of control
LMA response after twice-daily dosing (hD1 mice [5]; hD1 mice, 240 mg/kg oral twice daily): No tachyphylaxis
LMA response on repeated once-a-day dosing (hD1 mice [5]; hD1 mice, once daily for 4 days): undiminished on day 4
Shape of LMA dose-response curve (hD1 mice [5]; hD1 mice, DETQ up to 240 mg/kg): did not show any drop-off at higher doses
ED4X (dose causing a 4-fold increase in LMA) (hD1 mice [5]; habituated hD1 mice, oral): 7.2 mg/kg
Grooming (index of stereotyped behavior) (hD1 mice [6]): only modest changes that did not reach statistical significance
Horizontal locomotion and rearing (hD1 mice [6]): this increase was maintained up to the highest dose tested
Response in hD1 mice depleted of dopamine by reserpine (hD1 mice [7]): did not reverse hypokinesia; also recorded: absent
